From patent publication US7645881B2, “Methods for treating hepatitis C” (PTC Therapeutics, Inc., priority 2004, dated 2010)

Experiments:
HCV replicon = assay: microbe, parasite or virus in culture; type: cell-based; settings: Hepatitis C virus, 48 h, read-out: Replicon IC50s μM
[1] = test system: wild-type poliovirus (WT-PV); type: cell-based; settings: HeLa cells, MOI 0.1, compound for one day, decrease of cytopathic effect
[2] = test system: cap-dependent translation; assay: Western blot of Fluc protein in pLuc cells (cap-dependent translation); type: cell-based, human; settings: 20 hours, data not shown

Compound | IC50 (HCV replicon) | WTPV CPE (1.2 μM) [1] | WTPV CPE (11.1 μM) [1] | WTPV CPE (100 μM) [1] | melting point | cap-dependent protein production (luciferase reporter protein level, Western blot) [2]
CN1CCN(C(=O)c2sc3nc4c(c(C(F)(F)F)c3c2N)CCCCC4)CC1 [Compound 5] | > 2 µM | 0 | 1 (A “1” in the WT-PV CPE columns indicates that the CPE (cytopathic effect) is decreased by 20-50%.) | 2 (A “2” in the WT-PV CPE columns indicates that the CPE is decreased by 50-75%.) |  | 
Nc1c(C(=O)Nc2ccc(C(F)(F)F)cc2)sc2nc3c(cc12)CCCCC3 [Compound 29] | > 2 µM | 0 | 1 (A “1” in the WT-PV CPE columns indicates that the CPE (cytopathic effect) is decreased by 20-50%.) | 2 (A “2” in the WT-PV CPE columns indicates that the CPE is decreased by 50-75%.) |  | 
CCc1c(C)nc2sc(N)c(C#N)c2c1C [Compound 35, 2-amino-5-ethyl-4,6-dimethylthieno[2,3-b]pyridine-3-carbonitrile] | > 2 µM | 0 | 1 (A “1” in the WT-PV CPE columns indicates that the CPE (cytopathic effect) is decreased by 20-50%.) | 2 (A “2” in the WT-PV CPE columns indicates that the CPE is decreased by 50-75%.) | 223 to 225 °C | 
CCc1c(C)nc2sc(NC(=O)C(C)(C)C)c(C#N)c2c1C [Compound 50] | > 2 µM | 0 | 1 (A “1” in the WT-PV CPE columns indicates that the CPE (cytopathic effect) is decreased by 20-50%.) | 3 (A “3” in the WT-PV CPE columns indicates that the CPE is decreased by 75-100%.) | 164 to 166 °C | 
CCc1c(C)nc2sc(C(=O)SC(C)(C)C)cc2c1C [Compound 65] | 0.5 to 2 µM |  |  |  | 109.6 to 110.2 °C | 
COCCN1CCN(CCOc2c(C)nc3sc(C(=O)OC(C)(C)C)c(N)c3c2C)CC1 [Compound 66] | > 2 µM |  |  |  | 79 to 81 °C | 
Cc1nc2sc(C(=O)OC(C)(C)C)c(N)c2c(C)c1OCCN1CCOCC1 [Compound 67, t-butyl 3-amino-4,6-dimethyl-5-(2-morpholin-4-yl-ethoxy)-thieno[2,3-b]pyridine-2-carboxylate] | > 2 µM |  |  |  | 102 to 104 °C | 
Cc1nc2sc(C(=O)OC(C)(C)C)c(N)c2c(C)c1OCCN1CCN(C)CC1 [Compound 71] | > 2 µM |  |  |  | 155.4 to 155.5 °C | 
COc1ccc(C[C@H](N)C(=O)N[C@H]2[C@@H](O)[C@H](n3cnc4c(N(C)C)ncnc43)O[C@@H]2CO)cc1 [puromycin] |  |  |  |  |  | inhibited
